Patent US20090054451A1, “Use of Piperidine Derivatives as Agonists of Chemokine Receptor Activity” (Euroscreen S.A., priority 2007, published 2009)
Where two headings read alike, the source gives them in different places.

Legend:
[1] = biological target: T1, CCR5 receptor (Homo sapiens, UniProt P51681); assay: Aequorin-based calcium flux assay, antagonist mode (against reference agonist MIP-1β); type: cell-based; design: expressed in transfected cells; host or cells: Chinese hamster ovary (CHO) cells coexpressing apoaequorin and Gα16; details: CHO cells expressing CCR5, vs reference agonist MIP-1β; for IC50: read-out: Aequorin/Ca++ Antagonist assay IC50; for all read-outs here: key: Inactive means >30000 nm
T1 sequence (P51681 whole entry): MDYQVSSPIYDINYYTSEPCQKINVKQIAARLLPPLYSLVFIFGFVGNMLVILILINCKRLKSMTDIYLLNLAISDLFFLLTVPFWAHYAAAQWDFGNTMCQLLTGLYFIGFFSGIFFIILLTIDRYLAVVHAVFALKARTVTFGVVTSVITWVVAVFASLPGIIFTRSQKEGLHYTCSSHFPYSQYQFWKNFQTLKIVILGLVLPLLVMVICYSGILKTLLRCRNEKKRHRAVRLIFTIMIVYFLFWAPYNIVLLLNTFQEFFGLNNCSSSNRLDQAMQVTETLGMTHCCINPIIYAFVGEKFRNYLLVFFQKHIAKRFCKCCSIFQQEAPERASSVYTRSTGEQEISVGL
Description: (§1) Briefly, Chinese hamster ovary cells expressing the CCR5 receptor are transfected to coexpress apoaequorin and Gα16. Cells are incubated with 5 μM Coelenterazine H (Promega) overnight at room temperature, and resuspended at a concentration of 0.1×10^6 cells/ml. Cells are then mixed with test agonist or antagonist compounds and light emission by the aequorin is recorded with a luminometer (FDSS 6000-Hamamatsu) for 30 sec. Results are expressed as Relative Light Units (RLU). Controls include cells not expressing CCR5 in order to exclude possible non-specific effects of the test compound.
An antagonist response is defined as a decrease of light emission by aequorin of 10% or more in a sample of cells expressing CCR5 stimulated by a reference agonist ligand MIP-1β and treated with the compound of the invention, relative to a sample of cells expressing CCR5 but only treated with the reference agonist ligand MIP-1β.

[2] = biological target: T1, CCR5 receptor; assay: Aequorin-based calcium flux assay, agonist mode; type: cell-based; design: expressed in transfected cells; host or cells: Chinese hamster ovary (CHO) cells coexpressing apoaequorin and Gα16
Description: as §1
An agonist response is defined as an increase of light emission by aequorin corresponding to 10% or more of the light emitted by a reference sample of cells expressing CCR5 and treated with a the reference agonist ligand MIP-1β.

[3] = test system: recombinant and non-replicative HIV virus; assay: Inhibitory effect on HIV infection to MAGI-CCR5 cells (luciferase reporter virus); type: cell-based
Description: The inhibitory activity of the compounds of the invention on HIV infection is measured on the human MAGI R5 recombinant cell line coexpressing the human CCR5 receptor and CD4 at their extracellular membrane. MAGI R5 cells are plated in black view plates at 10,000 cells/well and incubated with the appropriate concentrations of the compounds of the invention during 1 hour. This is followed by a 24 hours infection period with the recombinant and non-replicative HIV virus coding for the firefly luciferase (Bona et al., 2006, Antimicrob. Agents Chemother. 50: 3407-3417). The inhibitory effect of the tested compound on virus entry in MAGI R5 cells is measured by a reduction of luciferase signal (TopCount-NXT reader (Packard) and detection luciferase kit: steadylite HTS assay kit (Perkin Elmer)) in the presence of the compound of the invention relative to the maximum signal obtained from cells infected with the virus without any added compound. The results of the tested compounds are reported as the concentration of compound required to inhibit 50% (IC50) of the maximum luciferase signal.

[4] = biological target: T1, CCR5 receptor; assay: 125I-MIP-1β binding competition assay; design: expressed in transfected cells; host or cells: membranes of recombinant Chinese hamster ovary (CHO) cells; details: membranes of CHO cells expressing human CCR5; 0.05 nM 125I-MIP-1β
Description: The ability of the compounds of the invention to inhibit the binding of MIP-1β was assessed by an in vitro radioligand binding assay. Membranes were prepared from Chinese hamster ovary recombinant cells which express the human CCR5 receptor. The membranes were incubated with 0.05 nM ^125I-MIP-1β in a HEPES 25 mM/CaCl2 5 mM/MgCl2 1 mM buffer and various concentrations of the compounds of the invention. The amount of iodinated MIP-1β bound to the receptor was determined after filtration by the quantification of membrane associated radioactivity using the TopCount-NXT reader (Packard). Competition curves were obtained for compounds of the invention and the concentration of compound which displaced 50% of bound radioligand (IC50) was calculated

[5] = CHO cells expressing CCR5, agonistic mode of action
[6] = CHO cells expressing CCR5, apoaequorin and Gα16, read-out: Aequorin/Ca++ assay EC50
[7] = Human immunodeficiency virus 1, MAGI, read-out: IC50 (HIV infection of MAGI R5 cells), range over the listed compounds
[8] = Human immunodeficiency virus 1, MAGI-CCR5, 24 h, read-out: HIV-Infection assay IC50
[9] = CHO cells expressing CCR5, agonistic mode of action, read-out: Aequorin/Ca++ Agonist assay EC50

Row | SMILES | IC50 [1] [nM] | Aequorin/Ca++ Agonist assay EC50 [2, 5] | EC50 [2, 6] [nM] | IC50 [3, 7] [nM] | IC50 [3, 8] [nM] | IC50 [4] [nM] | Aequorin/Ca++ Antagonist assay IC50 [1] | EC50 [2, 9] [nM]
1 | CN(C(=O)CN1Cc2ccccc2C1=O)C1CCN(CCC(c2ccccc2)c2ccccc2)CC1 [Compound 63] | 1430 | Inactive | – | – | – | – | – | –
2 | N#Cc1ccc(CC(=O)NC2CCN(CCC(c3ccccc3)c3ccccc3)CC2)cc1 [Compound 24] | – | – | 104 | 25.6 to 2500 | 384 | 3.25 | – | –
3 | O=C(Cc1ccc(Cl)cc1)NC1CCN(CCC(c2ccccc2)c2ccccc2)CC1 [Compound 1] | – | – | 58.8 | 25.6 to 2500 | 333 | 9.32 | Inactive | –
4 | COc1ccc(CC(=O)NC2CCN(CCC(c3ccccc3)c3ccccc3)CC2)cc1 [Compound 3] | – | – | 27.9 | 25.6 to 2500 | 871 | 14.8 | – | –
5 | O=C(CN1Cc2ccccc2C1=O)NC1CCN(CCC(c2ccccc2)c2ccccc2)CC1 [Compound 31] | – | – | – | – | – | – | Inactive | 470
6 | CC(CC(c1ccccc1)c1ccccc1)N1CCC(NC(=O)Cc2ccc(S(C)(=O)=O)cc2)CC1 (centres unmarked) [Compound 64] | – | – | 83.4 | 25.6 to 2500 | 25.6 | 0.14 | – | –
7 | C[C@H](CN(c1ccccc1)S(=O)(=O)Cc1ccccc1)N1CCC(NC(=O)Cc2ccc(F)cc2F)CC1 [Compound 113] | – | – | 29.4 | – | 4.6 | – | – | –
8 | O=C(Cc1c[nH]c2ccccc12)NC1CCN(CCC(c2ccccc2)c2ccccc2)CC1 [Compound 25] | – | – | 90.8 | 25.6 to 2500 | 1130 | 67.5 | – | –
9 | O=C(CC1CCCCC1)NC1CCN(CCC(c2ccccc2)c2ccccc2)CC1 [Compound 28] | – | – | 620 | – | 2540 | 158 | – | –
10 | C[C@H](CN(c1cccc(F)c1)S(=O)(=O)Cc1ccccc1)N1CCC(NC(=O)Cc2ccc(F)cc2F)CC1 [Compound 81] | – | – | 38.1 | – | 14.6 | 0.2 | – | –
11 | O=C(NC1CCN(CCC(c2ccccc2)c2ccccc2)CC1)C(c1ccccc1)N1Cc2ccccc2C1=O (centres unmarked) [Compound 37] | – | – | – | – | – | – | Inactive | 4250
12 | O=C(Cc1ccccc1)NC1CCN(CCC(c2ccccc2)c2ccccc2)CC1 [Compound 7] | – | – | 43.2 | 25.6 to 2500 | 1420 | 26.7 | – | –
13 | C[C@H](CN(c1cccc(F)c1)S(=O)(=O)Cc1ccccc1)N1CCC(NC(=O)Cc2ccc(C(F)(F)F)cc2)CC1 [Compound 90] | – | – | 180 | – | 5.3 | 0.7 | – | –
14 | C[C@H](CN(c1ccccc1)S(=O)(=O)Cc1ccccc1)N1CCC(NC(=O)Cc2ccc(C#N)cc2)CC1 [Compound 93] | – | – | 50.8 | – | 1.9 | 0.5 | – | –
15 | CN(C(=O)C(c1ccccc1)N1Cc2ccccc2C1=O)C1CCN(CCC(c2ccccc2)c2ccccc2)CC1 (centres unmarked) [Compound 62] | 1230 | Inactive | – | – | – | – | – | –
16 | CS(=O)(=O)c1ccc(CC(=O)NC2CCN(CCC(c3ccccc3)c3ccccc3)CC2)cc1 [Compound 2] | – | – | 33.2 | 25.6 to 2500 | 345 | 6.61 | – | –
17 | CC(CC(c1ccccc1)c1ccccc1)N1CCC(NC(=O)Cc2ccc(C#N)cc2)CC1 (centres unmarked) [Compound 65] | – | – | 117 | 25.6 to 2500 | 71.7 | 0.64 | – | –
18 | C[C@H](CN(c1cccc(F)c1)S(=O)(=O)Cc1ccccc1)N1CCC(NC(=O)Cc2ccc(F)cc2)CC1 [Compound 97] | – | – | 94.4 | – | 3 | 0.2 | – | –
19 | C[C@H](CN(c1cccc(F)c1)S(=O)(=O)Cc1ccccc1)N1CCC(NC(=O)Cc2ccccc2F)CC1 [Compound 80] | – | – | 31.3 | – | 27 | 0.8 | – | –
20 | O=C(Cc1ccc(OC(F)(F)F)cc1)NC1CCN(CCC(c2ccccc2)c2ccccc2)CC1 [Compound 5] | – | – | 145 | 25.6 to 2500 | 425 | 23.4 | – | –
